| Structure (SMILES) | melting point [°C] |
| --- | --- |
| COC1OCC[C@@H]1NC(=O)[C@H](CC(C)C)NC(=O)CNC(=O)COc1ccc2c(c1)Nc1ccccc1S2 (stereo partly drawn) | 181 to 182 |
| COC1OCC[C@@H]1NC(=O)[C@H](CC(C)C)NC(=O)[C@H](C)NC(=O)COc1ccc2c(c1)Nc1ccccc1S2 (stereo partly drawn) | 195 to 196 |
| COC1OCC[C@@H]1NC(=O)[C@H](CC(C)C)NC(=O)[C@@H](NC(=O)COc1ccc2c(c1)Nc1ccccc1S2)C(C)C (stereo partly drawn) | 240 to 241 |
| COC1OCC[C@@H]1NC(=O)[C@H](CC(C)C)NC(=O)CN(C)C(=O)COc1ccc2c(c1)Nc1ccccc1S2 (stereo partly drawn) | 92 to 95 |
| COC1OCC[C@@H]1NC(=O)[C@H](CC(C)C)NC(=O)[C@H](NC(=O)COc1ccc2c(c1)Nc1ccccc1S2)C(C)C (stereo partly drawn) | 204 to 206 |
| COC1OCC[C@@H]1NC(=O)[C@H](CC(C)C)NC(=O)[C@@H](NC(=O)COc1ccc2c(c1)Nc1ccccc1S2)C(C)(C)C (stereo partly drawn) | 152 to 153 |
| CC[C@H](NC(=O)COc1ccc2c(c1)Nc1ccccc1S2)C(=O)N[C@@H](CC(C)C)C(=O)N[C@H]1CCOC1OC (stereo partly drawn) | 164 to 165 |
| CCC[C@H](NC(=O)COc1ccc2c(c1)Nc1ccccc1S2)C(=O)N[C@@H](CC(C)C)C(=O)N[C@H]1CCOC1OC (stereo partly drawn) | 225 to 226 |
| COC1OCC[C@@H]1NC(=O)[C@H](CC(C)C)NC(=O)[C@@H](NC(=O)COc1ccc2c(c1)Nc1ccccc1S2)[C@@H](C)O (stereo partly drawn) | 92 to 93 |
| COC1OCC[C@@H]1N(C(=O)[C@@H](NC(=O)COc1ccc2c(c1)Nc1ccccc1S2)c1ccccc1)C(=O)[C@@H](N)CC(C)C (stereo partly drawn) | 215 to 217 |
| COC1OCC[C@@H]1NC(=O)[C@H](CC(C)C)NC(=O)C(C)(C)NC(=O)COc1ccc2c(c1)Nc1ccccc1S2 (stereo partly drawn) | 119 to 120 |
| COC1OCC[C@@H]1NC(=O)[C@H](CC(C)C)NC(=O)[C@H](CC(C)C)NC(=O)c1ccc2c(c1)Nc1ccccc1S2 (stereo partly drawn) | 180 to 180.5 |
| COC1OCC[C@@H]1NC(=O)[C@H](CC(C)C)NC(=O)[C@H](CCCCNC(=O)OCc1ccccc1)NC(=O)c1ccc2c(c1)Nc1ccccc1S2 (stereo partly drawn) | 102 to 103 |
| CC(C)CN(CC(=O)N[C@H]1CCOC1O)C(=O)CNC(=O)COc1ccc2c(c1)Nc1ccccc1S2 (stereo partly drawn) | 122 to 124 |
| COC1OCC[C@@H]1NC(=O)[C@H](CC(C)C)NC(=O)[C@@H]1CCCN1C(=O)c1ccc2c(c1)Nc1ccccc1S2 (stereo partly drawn) | 243 to 243.5 |
| CC(C)C[C@H](NC(=O)CNC(=O)c1ccc2c(c1)Nc1ccccc1S2)C(=O)N[C@H]1CCOC1O (stereo partly drawn) [Example 7, N-(10H-phenothiazin-2-ylcarbonyl)glycyl-N^1-[(3S)-2-hydroxytetrahydrofuran-3-yl]-L-leucinamide] | 126 to 126.5 |
| CC(C)C[C@H](NC(=O)c1ccc2c(c1)Nc1ccccc1S2)C(=O)N[C@@H](CC(C)C)C(=O)N[C@H]1CCOC1O (stereo partly drawn) [Example 8, N-(10H-phenothiazin-2-ylcarbonyl)leucyl-N^1-[(3S)-2-hydroxytetrahydrofuran-3-yl]-L-leucinamide] | 144 to 144.5 |
| CC(C)C[C@H](NC(=O)[C@H](CCCCNC(=O)OCc1ccccc1)NC(=O)c1ccc2c(c1)Nc1ccccc1S2)C(=O)N[C@H]1CCOC1O (stereo partly drawn) [Example 9, N 6-[(benzyloxy)carbonyl]-N^2-(10H-phenothiazin-2-ylcarbonyl)lysyl-N^1-[(3S)-2-hydroxytetrahydrofuran-3-yl]-L-leucinamide] | 109 to 109.5 |
| CC(C)C[C@H](NC(=O)[C@@H]1CCCN1C(=O)c1ccc2c(c1)Nc1ccccc1S2)C(=O)N[C@H]1CCOC1O (stereo partly drawn) [Example 10, 1-(10H-phenothiazin-2-ylcarbonyl)-L-prolyl-N^1-[(3S)-2-hydroxytetrahydrofuran-3-yl]-L-leucinamide] | 144.5 to 145 |
| CC(C)C[C@H](NC(=O)Cc1ccc2c(c1)Nc1ccccc1S2)C(=O)N[C@@H](CC(C)C)C(=O)N[C@H]1CCOC1O (stereo partly drawn) [Example 16, N-(10H-phenothiazin-2-ylacetyl)-L-leucyl-N^1-[(3S)-2-hydroxytetrahydrofuran-3-yl]-L-leucinamide] | 168 to 168.5 |

| Structure (SMILES) | melting point [°C] |
| --- | --- |
| CC(C)C[C@H](NC(=O)[C@H](COC(C)(C)C)NC(=O)Cc1ccc2c(c1)Nc1ccccc1S2)C(=O)N[C@H]1CCOC1O (stereo partly drawn) [Example 17, O-(tert-butyl)-N-(10H-phenothiazin-2-ylacetyl)-L-seryl-N^1-[(3S)-2-hydroxytetrahydrofuran-3-yl]-L-leucinamide] | 135 to 136 |
| C[C@H](NC(=O)Cc1ccc2c(c1)Nc1ccccc1S2)C(=O)N[C@@H](CC1CCCCC1)C(=O)N[C@H]1CCOC1O (stereo partly drawn) [Example 18, N-(10H-phenothiazin-2-ylacetyl)-L-alanyl-3-cyclohexyl-N^1-[(3S)-2-hydroxytetrahydrofuran-3-yl]-L-alaninamide] | 215 to 217 |
| CC(C)C[C@H](NC(=O)COc1ccc2c(c1)Nc1ccccc1S2)C(=O)N[C@@H](CC(C)C)C(=O)N[C@H]1CCOC1O (stereo partly drawn) [Example 40, N-[(10H-phenothiazin-2-yloxy)acetyl]-L-leucyl-N^1-[(3S)-2-hydroxytetrahydrofuran-3-yl]-L-leucinamide] | 141.5 to 142 |
| CC(C)C[C@H](NC(=O)CNC(=O)COc1ccc2c(c1)Nc1ccccc1S2)C(=O)N[C@H]1CCOC1O (stereo partly drawn) [Example 41, N-[(10H-phenothiazin-2-yloxy)acetyl]-glycyl-N^1-[(3S)-2-hydroxytetrahydrofuran-3-yl]-L-leucinamide] | 184 to 186 |
| CC(C)C[C@H](NC(=O)[C@H](C)NC(=O)COc1ccc2c(c1)Nc1ccccc1S2)C(=O)N[C@H]1CCOC1O (stereo partly drawn) [Example 42, N-[(10H-phenothiazin-2-yloxy)acetyl]-L-alanyl-N^1-[(3S)-2-hydroxytetrahydrofuran-3-yl]-L-leucinamide] | 144 to 146 |
| CC(C)C[C@H](NC(=O)[C@@H](NC(=O)COc1ccc2c(c1)Nc1ccccc1S2)C(C)C)C(=O)N[C@H]1CCOC1O (stereo partly drawn) [Example 43, N-[(10H-phenothiazin-2-yloxy)acetyl]-L-valyl-N^1-[(3S)-2-hydroxytetrahydrofuran-3-yl]-L-leucinamide] | 205 to 206 |
| CC(C)C[C@H](NC(=O)CCNC(=O)COc1ccc2c(c1)Nc1ccccc1S2)C(=O)N[C@H]1CCOC1O (stereo partly drawn) [Example 44, N-[(10H-phenothiazin-2-yloxy)acetyl]-β-alanyl-N^1-[(3S)-2-hydroxytetrahydrofuran-3-yl]-L-leucinamide] | 161 to 162 |
| CC(C)C[C@H](NC(=O)CN(C)C(=O)COc1ccc2c(c1)Nc1ccccc1S2)C(=O)N[C@H]1CCOC1O (stereo partly drawn) [Example 45, N-methyl-N-[(10H-phenothiazin-2-yloxy)acetyl]glycyl-N^1-[(3S)-2-hydroxytetrahydrofuran-3-yl]-L-leucinamide] | 137 to 138 |
| CC(C)C[C@H](NC(=O)[C@H](NC(=O)COc1ccc2c(c1)Nc1ccccc1S2)C(C)C)C(=O)N[C@H]1CCOC1O (stereo partly drawn) [Example 46, N-[(10H-phenothiazin-2-yloxy)acetyl]-D-valyl-N^1-[(3S)-2-hydroxytetrahydrofuran-3-yl]-L-leucinamide] | 145 to 146 |
| CC(C)C[C@H](NC(=O)[C@@H](NC(=O)COc1ccc2c(c1)Nc1ccccc1S2)C(C)(C)C)C(=O)N[C@H]1CCOC1O (stereo partly drawn) [Example 47, 3-methyl-N-[(10H-phenothiazin-2-yloxy)acetyl]-L-valyl-N^1-[(3S)-2-hydroxytetrahydrofuran-3-yl]-L-leucinamide] | 157 to 159 |
| CC[C@H](NC(=O)COc1ccc2c(c1)Nc1ccccc1S2)C(=O)N(C(=O)[C@@H](N)CC(C)C)[C@H]1CCOC1O (stereo partly drawn) [Example 48, N^1-[(3S)-2-hydroxytetrahydrofuran-3-yl]-N^1-((2S)-2-{[(10H-phenothiazin-2-yloxy)acetyl]amino}butanoyl)-L-leucinamide] | 160 to 161 |
| CCC[C@H](NC(=O)COc1ccc2c(c1)Nc1ccccc1S2)C(=O)N[C@@H](CC(C)C)C(=O)N[C@H]1CCOC1O (stereo partly drawn) [Example 49, N-[(10H-phenothiazin-2-yloxy)acetyl]-L-norvalyl-N^1-[(3S)-2-hydroxytetrahydrofuran-3-yl]-L-leucinamide] | 195 to 196 |
| CC(C)C[C@H](NC(=O)[C@H](CO)NC(=O)COc1ccc2c(c1)Nc1ccccc1S2)C(=O)N[C@H]1CCOC1O (stereo partly drawn) [Example 50, N-[(10H-phenothiazin-2-yloxy)acetyl]-L-seryl-N^1-[(3S)-2-hydroxytetrahydrofuran-3-yl]-L-leucinamide] | 128 to 130 |
| CC(C)C[C@H](NC(=O)[C@@H](NC(=O)COc1ccc2c(c1)Nc1ccccc1S2)[C@@H](C)O)C(=O)N[C@H]1CCOC1O (stereo partly drawn) [Example 51, N-[(10H-phenothiazin-2-yloxy)acetyl]-L-threonyl-N^1-[(3S)-2-hydroxytetrahydrofuran-3-yl]-L-leucinamide] | 195 to 196 |
| CC(C)C[C@H](NC(=O)[C@@H](NC(=O)COc1ccc2c(c1)Nc1ccccc1S2)c1ccccc1)C(=O)N[C@H]1CCOC1O (stereo partly drawn) [Example 52, N^1-[(3S)-2-hydroxytetrahydrofuran-3-yl]-N^2-((2S)-2-{[(10H-phenothiazin-2-yloxy)acetyl]amino}-2-phenylethanoyl)-L-leucinamide] | 137 to 138 |
| C=CC(NC(=O)COc1ccc2c(c1)Nc1ccccc1S2)C(=O)NC(CC(C)C)C(=O)NC1CCOC1O [Example 53, N^1-[(3S)-2-hydroxytetrahydrofuran-3-yl]-N^2-((2S)-2-{[(10H-phenothiazin-2-yloxy)-acetyl]amino}goal-3-enoyl)-L-leucinamide] | 159 to 161 |
| CC(C)C[C@H](NC(=O)C(C)(C)NC(=O)COc1ccc2c(c1)Nc1ccccc1S2)C(=O)N[C@H]1CCOC1O (stereo partly drawn) [Example 54] | 138 to 140 |
| CC(C)[C@H](NC(=O)CNC(=O)COc1ccc2c(c1)Nc1ccccc1S2)C(=O)N[C@H]1CCOC1O (stereo partly drawn) [Example 55, N-[(10H-phenothiazin-2-yloxy)acetyl]glycyl-N^1-[(3S)-2-hydroxytetrahydrofuran-3-yl]-L-valinamide] | 200 to 201 |
| O=C(COc1ccc2c(c1)Nc1ccccc1S2)NCC(=O)N[C@@H](CC1CCCCC1)C(=O)N[C@H]1CCOC1O (stereo partly drawn) [Example 56, N-[(10H-phenothiazin-2-yloxy)acetyl]glycyl-3-cyclohexyl-N^1-[(3S)-2-hydroxytetrahydrofuran-3-yl]-L-alaninamide] | 212 to 215 |

Source: US7384933B2, “Derivatives of 2-hydroxytetrahydrofuran and their use as medicaments” (priority 2003, dated 2008)
